Assays:
[1] = test system: eIF2α in HEK293-EGFP-eIF2α cells; test: PERK Cellular Assay (HEK293-EGFP-eIF2α cells, tunicamycin-induced ER stress, TR-FRET); format: cell-based; conditions: tunicamycin 2 hours
How it was run: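 Cells pre-incubated with inhibitor 30 min at 37 °C, then ER stress induced with […] tunicamycin for 2 h. TR-FRET read on lysates; ratio normalized to DMSO control as percent inhibition over a 10-point, 3-fold dilution series; IC50 from 4-parameter logistic fit.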

[2] = biological target: Recombinant human EIF2AK3 (PERK) catalytic domain (amino acids 536-1116) (Homo sapiens (Human), UniProt Q9NZJ5); test: PERK In Vitro Activity Assay (isolated), TR-FRET kinase assay; conditions: isolated PERK enzyme, 1.5 μM ATP, read-out: Biochemical IC50
Sequence of Recombinant human EIF2AK3 (PERK) catalytic domain (amino acids 536-1116) (Q9NZJ5 536-1116): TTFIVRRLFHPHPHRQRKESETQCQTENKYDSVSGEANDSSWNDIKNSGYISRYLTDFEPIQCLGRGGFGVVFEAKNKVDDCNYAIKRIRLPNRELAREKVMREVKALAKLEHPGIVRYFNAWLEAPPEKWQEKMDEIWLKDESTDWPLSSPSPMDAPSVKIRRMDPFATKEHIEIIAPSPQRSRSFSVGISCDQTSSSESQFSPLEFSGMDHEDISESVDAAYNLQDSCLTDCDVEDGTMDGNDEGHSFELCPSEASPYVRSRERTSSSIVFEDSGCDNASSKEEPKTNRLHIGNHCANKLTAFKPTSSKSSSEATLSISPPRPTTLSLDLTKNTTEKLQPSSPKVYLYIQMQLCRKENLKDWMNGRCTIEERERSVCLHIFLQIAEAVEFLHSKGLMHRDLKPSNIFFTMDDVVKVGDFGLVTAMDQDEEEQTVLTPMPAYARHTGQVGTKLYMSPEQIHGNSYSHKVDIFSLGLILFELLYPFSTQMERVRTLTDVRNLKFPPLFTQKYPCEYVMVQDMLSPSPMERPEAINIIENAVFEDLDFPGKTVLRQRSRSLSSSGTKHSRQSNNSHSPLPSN
How it was run: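 Recombinant PERK catalytic domain was incubated with 100–200 nM GFP-eIF2a substrate in 50 mM HEPES pH 7.5, 10 mM MgCl2, 1.0 mM EGTA and 0.01% Brij-35 for 45 min at room temperature. After a 10 mM EDTA stop, 2 nM Tb-anti-phospho-eIF2a was added for 90 min, and IC50 was fitted from TR-FRET ratios by 4-parameter logistic regression.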

| SMILES | IC50 [2] [nM] | IC50 [1] [nM] |
| --- | --- | --- |
| [2H]C([2H])([2H])c1nc(-c2ccc(NC(=O)C(O)c3cccc(F)c3)nc2C)c2c(N)nc(C)cn12 (stereo not drawn) [Example 171, N-[5-[8-amino-6-methyl-3-(trideuteriomethyl)imidazo[1,5-a]pyrazin-1-yl]-6-methyl-2-pyridyl]-2-(3-fluorophenyl)-2-hydroxy-acetamide] | 1000 to 2000 | > 5000 |
| [2H]C([2H])([2H])c1nc(-c2ccc(NC(=O)C(O)c3cccc(C(F)(F)F)c3)nc2C)c2c(N)ncc(C)n12 (stereo not drawn) [Example 174, N-[5-[8-amino-5-methyl-3-(trideuteriomethyl)imidazo[1,5-a]pyrazin-1-yl]-6-methyl-2-pyridyl]-2-hydroxy-2-[3-(trifluoromethyl)phenyl]acetamide] | 1 to 25 | 26 to 50 |
| [2H]C([2H])([2H])c1nc(-c2ccc(NC(=O)C(O)c3cccc(C(F)(F)F)c3)nc2C)c2c(N)nc(C)cn12 (stereo not drawn) [Example 176, N-[5-[8-amino-6-methyl-3-(trideuteriomethyl)imidazo[1,5-a]pyrazin-1-yl]-6-methyl-2-pyridyl]-2-hydroxy-2-[3-(trifluoromethyl)phenyl]acetamide] | 1 to 25 | 51 to 100 |
| [2H]C([2H])([2H])c1nc(-c2cnc(NC(=O)C(O)c3cccc(F)c3)cc2C)c2c(N)nc(C)cn12 (stereo not drawn) [Example 179, N-[5-[8-amino-6-methyl-3-(trideuteriomethyl)imidazo[1,5-a]pyrazin-1-yl]-4-methyl-2-pyridyl]-2-(3-fluorophenyl)-2-hydroxy-acetamide] | 1 to 25 | 251 to 500 |
| [2H]C([2H])([2H])c1nc(-c2cnc(NC(=O)C(O)c3cccc(F)c3)cc2C)c2c(N)ncc(C)n12 (stereo not drawn) [Example 180, N-[5-[8-amino-5-methyl-3-(trideuteriomethyl)imidazo[1,5-a]pyrazin-1-yl]-4-methyl-2-pyridyl]-2-(3-fluorophenyl)-2-hydroxy-acetamide] | 26 to 50 | 501 to 1000 |
| [2H]C([2H])([2H])c1nc(-c2cnc(NC(=O)C(O)c3cccc(F)c3)cc2C)c2c(N)ncc(C)n12 (stereo not drawn) [Example 181, N-[5-[8-amino-5-methyl-3-(trideuteriomethyl)imidazo[1,5-a]pyrazin-1-yl]-4-methyl-2-pyridyl]-2-(3-fluorophenyl)-2-hydroxy-acetamide] | 1 to 25 | 26 to 50 |
| [2H]C([2H])([2H])c1nc(-c2cnc(NC(=O)C(O)c3cccc(C(F)(F)F)c3)cc2C)c2c(N)nc(C)cn12 (stereo not drawn) [Example 182, N-[5-[8-amino-6-methyl-3-(trideuteriomethyl)imidazo[1,5-a]pyrazin-1-yl]-4-methyl-2-pyridyl]-2-hydroxy-2-[3-(trifluoromethyl)phenyl]acetamide] | 1 to 25 | 101 to 250 |

Further lines, with some results ahead:

| IC50 [2] [nM] | SMILES | IC50 [1] [nM] |
| --- | --- | --- |
| 1 to 25 | [2H]C([2H])([2H])c1nc(-c2ccc(NC(=O)C(O)c3cccc(F)c3)nc2C)c2c(N)ncc(C)n12 (stereo not drawn) [Example 173, N-[5-[8-amino-5-methyl-3-(trideuteriomethyl)imidazo[1,5-a]pyrazin-1-yl]-6-methyl-2-pyridyl]-2-(3-fluorophenyl)-2-hydroxy-acetamide] | 26 to 50 |
| 1 to 25 | [2H]C([2H])([2H])c1nc(-c2ccc(NC(=O)C(O)c3cccc(C(F)(F)F)c3)nc2C)c2c(N)ncc(C)n12 (stereo not drawn) [Example 175, N-[5-[8-amino-5-methyl-3-(trideuteriomethyl)imidazo[1,5-a]pyrazin-1-yl]-6-methyl-2-pyridyl]-2-hydroxy-2-[3-(trifluoromethyl)phenyl]acetamide] | 101 to 250 |
| 101 to 250 | [2H]C([2H])([2H])c1nc(-c2ccc(NC(=O)C(O)c3cccc(C(F)(F)F)c3)nc2C)c2c(N)nc(C)cn12 (stereo not drawn) [Example 177, N-[5-[8-amino-6-methyl-3-(trideuteriomethyl)imidazo[1,5-a]pyrazin-1-yl]-6-methyl-2-pyridyl]-2-hydroxy-2-[3-(trifluoromethyl)phenyl]acetamide] | 501 to 1000 |
| 251 to 500 | [2H]C([2H])([2H])c1nc(-c2cnc(NC(=O)C(O)c3cccc(F)c3)cc2C)c2c(N)nc(C)cn12 (stereo not drawn) [Example 178, N-[5-[8-amino-6-methyl-3-(trideuteriomethyl)imidazo[1,5-a]pyrazin-1-yl]-4-methyl-2-pyridyl]-2-(3-fluorophenyl)-2-hydroxy-acetamide] | 4000 to 5000 |
| 251 to 500 | [2H]C([2H])([2H])c1nc(-c2cnc(NC(=O)C(O)c3cccc(C(F)(F)F)c3)cc2C)c2c(N)nc(C)cn12 (stereo not drawn) [Example 183, N-[5-[8-amino-6-methyl-3-(trideuteriomethyl)imidazo[1,5-a]pyrazin-1-yl]-4-methyl-2-pyridyl]-2-hydroxy-2-[3-(tnfluoromethyl)phenyl]acetamide] | 2000 to 3000 |
